Test results from patent publication US12161114B2, “Overpowered ABA receptor agonists” (The Regents of the University of California, priority 2018, dated 2024).

Experiments:
[1] = tested on: panel of recombinant ABA receptors; PP2C HAB1; experiment: receptor-mediated PP2C inhibition assay, dose response, umbelliferone substrate; assay type: biochemical, Arabidopsis; conditions: 4 nM to 50 μM dose response
Description: Each ligand was tested at concentrations spanning 7 points between 4 nM and 50 μM in triplicate in a reaction buffer containing 100 mM Tris-HCl-pH7.9, 100 mM NaCl, 30 μg/ml BSA, 0.1% 2-mercaptoethanol, 25 nM ΔN-HAB1, 1 mM 4-methylumbelliferyl phosphate, and different recombinant ABA receptors at 50 nM or 300 nM (for PYL9 or PYL11). The substrate was added ˜20 minutes after the other components had been mixed and fluorescence data collected. Control carrier solvent-only wells were included as a reference and %-activity for tested compounds calculated relative to this control. The dose response data (PP2C activity versus agonist concentration) was fit to a log (inhibitor) vs. response-(variable slope) model using non-linear regression to infer the IC50S, using GraphPad Prism 6.0, to yield the IC50 values shown in FIG. 6.
The potency and selectivity of ligands 2b, 2e-f was established by testing their ability to activate multiple ABA receptor subtypes using the fluorescence based phosphasted assay as outlined in example 2 at a range of concentrations (4 nM to 50 μM). In addition, we compared ligand potency to ABA, quinabactin and a recently described fluorinated quinabactin analog AMF4, which is reported to have improved potency in comparison toe quinabactin. To conduct the assays purified recombinant receptors were tested at 50 nM or, in the a cases of PYL9 and PYL11, 300 nM and 25 nM ΔN-HAB1. The PP2C-activity dose response data obtained was fit to a log (inhibitor) vs response-(variable slope) model using non-linear regression to infer the IC50S, using GraphPad Prism 6.0, to yield IC50 values as shown in FIG. 12A. […] Moreover, the installation of a single cyclopropyl group ortho to the nitrile (analog 2e) provided a further boost in potency, dramatically so for all subfamily III receptors, PYL4 and PYL11. […] Furthermore, the installation of a second cyclopropyl substituent (analog 2f) provides an even further boot in activity on subfamily III receptors, which comes at the expense of reduced potency on subfamily I receptors. […] 2f is therefore an unusually overpowered ABA receptor agonist, which we refer to as opabactin (Opa).

[2] = tested on: pyr1/pyl1, pyl8/pyl9 and abi1C mutants; experiment: seed germination on receptor mutants and ABA signalling mutant abi1C; assay type: in vivo, Arabidopsis; conditions: tested at twice the EC50
Description: (§1) Prior to selecting a scaffold for optimization we conducted Arabidopsis seed germination assays to establish if the hits obtained are activity in vivo. Germination experiments were performed with surface sterilized wild type Columbia Arabidopsis thaliana seeds and abi1C (the abi1-1 allele isolated in the Columbia ecotype) plated onto 0.7% agar medium containing 1/2-x MS salts, 0.5% sucrose and differing concentrations of the test compounds. After 4d of stratification at 4° C., the plates were transferred to a growth chamber under continuous illumination and evaluated after 4 days.
Methods similar to example 3 were followed.

[3] = tested on: wild type Columbia Arabidopsis thaliana seeds; experiment: Arabidopsis seed germination assay; assay type: in vivo; conditions: Arabidopsis thaliana
Description: as §1
To establish if the in vitro potency of Opa translates into improved activity in vivo, we measured the effects of ABA, QB, AMF4, Opa and 2e on Arabidopsis seed germination at a range of concentrations to infer quantitative measures or potency. Methods similar to that described in Example 3 are followed. The percentage of germinated seeds were recorded for each chemical treatment for each concentration in quadruplicate. EC50 values denote the concentrations at which 50% of seeds have been inhibited.

PYL2 = target: T1, PYL2 (Arabidopsis thaliana, UniProt O80992); experiment: receptor-mediated PP2C inhibition assay, pnPP substrate, PYL2; assay type: biochemical
T1 construct: 6xHis; made in house
T1 sequence (O80992 1-190): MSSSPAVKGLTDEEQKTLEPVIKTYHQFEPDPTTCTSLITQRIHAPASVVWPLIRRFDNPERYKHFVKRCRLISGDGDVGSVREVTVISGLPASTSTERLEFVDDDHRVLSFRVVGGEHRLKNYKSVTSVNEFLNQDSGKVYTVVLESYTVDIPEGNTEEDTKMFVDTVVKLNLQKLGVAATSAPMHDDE
T1 sequence (Q9CAJ0 180-511 partner): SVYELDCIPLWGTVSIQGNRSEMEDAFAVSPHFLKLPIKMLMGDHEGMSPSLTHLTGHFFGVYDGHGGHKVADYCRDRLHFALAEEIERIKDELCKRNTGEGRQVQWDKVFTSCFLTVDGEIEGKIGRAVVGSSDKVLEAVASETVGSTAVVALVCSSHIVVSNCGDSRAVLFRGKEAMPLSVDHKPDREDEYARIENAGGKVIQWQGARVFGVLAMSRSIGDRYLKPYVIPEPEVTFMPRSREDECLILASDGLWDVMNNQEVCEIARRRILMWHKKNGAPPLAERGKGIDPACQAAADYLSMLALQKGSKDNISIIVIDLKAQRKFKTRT
Description: The potency and selectivity of ligand 10H4, a relatively potent member of scaffold 2, was characterized in separate experiments using an absorbance-based assay using the colorimetric substrate p-nitrophenyl phosphate (pNPP), as follows. Purified proteins (100 nM receptor, 50 nM HAB1) were pre-incubated in 160 μl assay buffer containing (100 mM Tris-HCl-pH7.9, 100 mM NaCl, 0.3 μg/mL BSA, 0.1% 2-mercaptoethanol, and 1 mM MnCl2) with ligands for 30 minutes at room temperature. Reactions were started by adding 40 μL of 25 mM p-NPP in assay buffer after which absorbance measurements were immediately collected at 405 nm on Tecan plate reader. The concentrations tested spanned 4 nM to 10 μM and the dose response data obtained was fit to a log (inhibitor) vs response-(variable slope) model using non-linear regression to infer the IC50S, using GraphPad Prism, to yield the IC50 values shown in FIG. 7.
8, no. 1, October 2017, p. 1183. • Daszkowska-Golec, Agata. […]

[4] = tested on: pooled ABA receptors (PYL1, PYL2, PYL4, PYL8, and maize receptor ZmPYLe) with PP2C HAB1; experiment: pooled receptor activation assay (receptor/ligand-mediated inhibition of PP2C HAB1, 4-methylumbelliferyl phosphate); assay type: biochemical, Arabidopsis; maize; conditions: tested in duplicate at 20 μM
Excerpt: The angiosperm ABA receptor family is large and contains many receptors that cluster into 3 subfamilies. Multiple analyses have shown that agonists of subfamily III receptors are particularly efficacious as antitranspirants, however pan agonists or other new selective agonists may be valuable for crop enhancement. In principle, a docking hit molecule might interact with any or all ABA receptors, creating a large matrix of possible interactions and screening conditions. To expedite the process of screening for new ABA agonists, we developed a pooled receptor screening assay. To do this we selected phylogenetically diverse ABA receptors (PYL1, PYL2, PYL4, PYL8, and maize receptor ZmPYLe), pooled them, and assayed receptor/ligand-mediated inhibition of the PP2C HAB1. The Arabidopsis receptors and PP2C ΔN-HAB1 used were expressed and purified using previously described expression clones and methods (Okamoto et al.) PYL1, PYL2, PYL4, and PYL8 were expressed as 6×-His tags in pET28; ΔN-HAB1 was expressed as 6×-His tag as a truncated form lacking residues 1-179 in pETM-11. ZmPylE (GRMZM2G165567; ZmPYL8 in (He et al.)) was expressed as an MBP fusion protein in pMal-c and expressed and purified as described previously for PYL9 and PYL1 in reference (Okamoto et al.). Assays were conducted in a buffer containing 100 mM Tris-HCl-pH7.9, 100 mM NaCl, 30 μg/ml BSA, 0.1% 2-mercaptoethanol, 100 nM PYL1 and PYL2, 900 nM PYL4 and PYL8, 200 nM ZmPylE, 1 mM 4-methylumbelliferyl phosphate, and 20 μM test compound. The substrate was added ˜20 minutes after the other components had been mixed and fluorescence data collected after substrate addition using a Tecan Infinite F200 Pro fluorimeter. Control carrier solvent-only wells were included as a reference and %-PP2C activity calculated relative to this control. To validate this assay we tested multiple selective and pan-agonists to ensure that their activity could reliably be detected. […]

| activity in the pooled receptor assay [4] | Compound | effect on germination in receptor mutant backgrounds [2] | other results |
| --- | --- | --- | --- |
| – | N#Cc1ccc(CC(=O)NC2(C(=O)O)CCCCC2)cc1 [2b, 1-[2-(4-cyanophenyl)acetamido]cyclohexane-1-carboxylic acid] | – | potency in receptor-mediated PP2C inhibition (in words) [1]: dramatically improves activity across all receptors tested |
| – | N#Cc1ccc(CC(=O)NC2(C(=O)O)CCCCC2)cc1C1CC1 [2e, 1-[2-(4-cyano-3-cyclopropylphenyl)acetamido]cyclohexane-1-carboxylic acid] | clearly reduced in the pyr1/pyl1 and pyl8/pyl9 mutant backgrounds | potency in receptor-mediated PP2C inhibition (in words) [1]: high potency across all receptors tested; test concentration (twice the EC50 for germination inhibition) ([3]; printed value is twice the EC50, used as test concentration on mutants, read-out: twice the concentrations determined as its EC50 (inhibition of germination) (converted)): 220 nM |
| – | CS(=O)(=O)NC(=O)C1(NC(=O)Cc2ccc(C#N)c(C3CC3)c2)CCCCC1 [2r] | – | activity on PYL2 (in words) (PYL2): modestly activity on PYL2 |
| – | CCCN1C(=O)CCc2cc(NS(=O)(=O)Cc3c(F)c(F)c(C)c(F)c3F)ccc21 [AMF4] | only show diminished activity in the pyr1/pyl1 mutant | – |
| active | O=S(=O)(NCc1ccccn1)c1ccc(Br)c2ccccc12 [pyrabactin] | – | – |
| active | CCCN1C(=O)CCc2cc(NS(=O)(=O)Cc3ccc(C)cc3)ccc21 [quinabactin] | only show diminished activity in the pyr1/pyl1 mutant | – |

| Compound | activity in the pooled receptor assay [4] | effect on germination in receptor mutant backgrounds [2] | other results |
| --- | --- | --- | --- |
| CC1=CC(=O)CC(C)(C)[C@@]1(O)/C=C/C(C)=C\C(=O)O [ABA, Abscisic acid] | active | clearly reduced in the pyr1/pyl1 and pyl8/pyl9 mutant backgrounds | EC50 ([3]; read-out: twice the concentrations determined as its EC50 (inhibition of germination)): 600 nM |
